# Measured values: ChEMBL document CHEMBL1201862, “PubChem BioAssay data set” (2004)
# The source made the active and inactive calls.
# How the values were obtained:
# H9c2 = test: cells; assay type: functional, cell-based; settings: Rattus norvegicus, H9c2, Myocardium;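 also: confirmatory concentration-response retest of ultra-high-throughput screening hits for modulation of myocardial damage; cell death induced by hydrogen peroxide oxidative stress; compound pretreatment for 60 min then peroxide exposure for 2 h; potency is for protecting the cells against peroxide damage rather than for killing them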
# [1] = biological target: T1, Ubiquitin-conjugating enzyme E2 N (Homo sapiens, UniProt P61088); assay type: functional;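 also: Dose-response confirmation in a TR-FRET assay detecting UBC13-driven polyubiquitin chain formation, inhibition measured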
# T1 sequence (P61088 whole entry): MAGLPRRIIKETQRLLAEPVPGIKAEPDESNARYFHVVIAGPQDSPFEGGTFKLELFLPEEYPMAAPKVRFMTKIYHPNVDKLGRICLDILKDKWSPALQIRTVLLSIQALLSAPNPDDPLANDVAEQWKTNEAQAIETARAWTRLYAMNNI
# Fatty acid synthase [2] = biological target: T2, Fatty acid synthase (Homo sapiens, UniProt P49327); test: FAS thioesterase domain inhibitors, dose response, biochemical, endpoint fluorescence intensity, uHTS hits (AID 624327); assay type: functional;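 also: fluorescence from hydrolysis of an O-methyl fluorescein acyl ester substrate by the enzyme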
# T2 sequence (P49327 whole entry, the tested form may be a part): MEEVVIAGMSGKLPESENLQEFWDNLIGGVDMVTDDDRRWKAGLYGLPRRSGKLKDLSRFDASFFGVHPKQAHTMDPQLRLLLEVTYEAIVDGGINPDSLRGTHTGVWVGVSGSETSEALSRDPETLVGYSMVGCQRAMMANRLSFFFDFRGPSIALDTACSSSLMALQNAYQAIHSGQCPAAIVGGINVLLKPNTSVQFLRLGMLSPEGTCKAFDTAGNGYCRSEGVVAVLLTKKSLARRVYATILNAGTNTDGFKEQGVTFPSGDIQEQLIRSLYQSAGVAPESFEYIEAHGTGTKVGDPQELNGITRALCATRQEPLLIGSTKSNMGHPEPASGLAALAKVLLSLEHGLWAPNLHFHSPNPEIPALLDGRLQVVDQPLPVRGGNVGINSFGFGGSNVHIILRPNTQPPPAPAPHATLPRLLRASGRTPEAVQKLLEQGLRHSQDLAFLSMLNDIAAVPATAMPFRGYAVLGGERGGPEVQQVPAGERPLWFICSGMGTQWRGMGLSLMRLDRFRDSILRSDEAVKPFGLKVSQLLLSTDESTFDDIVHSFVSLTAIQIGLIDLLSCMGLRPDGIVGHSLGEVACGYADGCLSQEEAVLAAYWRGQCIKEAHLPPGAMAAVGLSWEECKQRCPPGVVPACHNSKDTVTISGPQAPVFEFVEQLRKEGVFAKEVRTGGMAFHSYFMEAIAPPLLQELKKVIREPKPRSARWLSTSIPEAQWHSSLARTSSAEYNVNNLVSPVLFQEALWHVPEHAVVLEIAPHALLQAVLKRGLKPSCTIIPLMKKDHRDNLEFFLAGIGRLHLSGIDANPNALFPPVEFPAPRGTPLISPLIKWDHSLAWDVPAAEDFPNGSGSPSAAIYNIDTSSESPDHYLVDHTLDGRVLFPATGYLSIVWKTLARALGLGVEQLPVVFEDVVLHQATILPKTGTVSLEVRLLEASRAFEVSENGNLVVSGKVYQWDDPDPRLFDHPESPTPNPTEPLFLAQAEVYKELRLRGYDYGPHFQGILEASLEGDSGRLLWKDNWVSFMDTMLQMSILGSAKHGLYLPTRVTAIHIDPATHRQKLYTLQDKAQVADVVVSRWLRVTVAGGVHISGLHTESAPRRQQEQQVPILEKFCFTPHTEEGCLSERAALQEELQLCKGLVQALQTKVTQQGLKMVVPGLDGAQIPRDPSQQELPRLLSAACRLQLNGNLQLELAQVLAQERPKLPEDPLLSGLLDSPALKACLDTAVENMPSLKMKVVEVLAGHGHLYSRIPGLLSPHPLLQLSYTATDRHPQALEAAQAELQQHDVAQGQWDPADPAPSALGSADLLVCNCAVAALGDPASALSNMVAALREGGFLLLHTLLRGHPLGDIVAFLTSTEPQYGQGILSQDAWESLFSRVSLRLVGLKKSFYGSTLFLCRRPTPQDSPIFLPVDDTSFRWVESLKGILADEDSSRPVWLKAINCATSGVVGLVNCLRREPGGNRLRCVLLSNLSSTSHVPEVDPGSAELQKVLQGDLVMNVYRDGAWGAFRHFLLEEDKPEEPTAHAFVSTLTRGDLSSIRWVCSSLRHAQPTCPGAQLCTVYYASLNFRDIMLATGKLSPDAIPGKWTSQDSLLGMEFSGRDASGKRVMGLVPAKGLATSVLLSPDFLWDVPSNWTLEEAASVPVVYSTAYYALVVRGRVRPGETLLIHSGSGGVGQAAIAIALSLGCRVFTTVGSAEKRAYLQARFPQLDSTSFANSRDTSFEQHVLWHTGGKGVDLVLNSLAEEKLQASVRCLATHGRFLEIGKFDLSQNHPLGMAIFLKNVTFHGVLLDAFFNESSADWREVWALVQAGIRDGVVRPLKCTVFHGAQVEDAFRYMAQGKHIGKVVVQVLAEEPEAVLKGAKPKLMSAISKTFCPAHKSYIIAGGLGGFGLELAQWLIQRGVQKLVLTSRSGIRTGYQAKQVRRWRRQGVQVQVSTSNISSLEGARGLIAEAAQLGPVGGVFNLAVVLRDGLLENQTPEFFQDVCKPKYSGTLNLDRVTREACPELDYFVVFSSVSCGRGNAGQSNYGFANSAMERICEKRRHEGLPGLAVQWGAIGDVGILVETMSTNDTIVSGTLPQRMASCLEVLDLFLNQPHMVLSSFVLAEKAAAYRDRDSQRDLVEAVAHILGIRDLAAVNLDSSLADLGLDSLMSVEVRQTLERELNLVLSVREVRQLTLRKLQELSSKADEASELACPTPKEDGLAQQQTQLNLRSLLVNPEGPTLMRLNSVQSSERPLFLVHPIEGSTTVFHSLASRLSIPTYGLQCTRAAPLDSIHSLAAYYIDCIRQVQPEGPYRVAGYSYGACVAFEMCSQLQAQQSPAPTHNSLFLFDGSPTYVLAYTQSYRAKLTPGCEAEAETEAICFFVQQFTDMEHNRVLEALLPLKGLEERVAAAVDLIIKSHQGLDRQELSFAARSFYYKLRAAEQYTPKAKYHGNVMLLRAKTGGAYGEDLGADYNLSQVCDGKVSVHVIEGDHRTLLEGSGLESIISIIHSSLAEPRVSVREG
# Fatty acid synthase [3] = biological target: T2, Fatty acid synthase; test: FAS thioesterase domain inhibitors, dose response, biochemical, kinetic fluorescence intensity (AID 624326); assay type: functional;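 also: rate of fluorescence rise from hydrolysis of a fluorogenic O-methyl fluorescein ester substrate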
# [4] = biological target: T3, Zinc finger protein mex-5 (Caenorhabditis elegans, UniProt Q9XUB2); test: MEX-5/TCR-2 RNA interaction inhibitors, dose response, biochemical, C. elegans, fluorescence polarization (AID 1960)
# T3 sequence (Q9XUB2 whole entry): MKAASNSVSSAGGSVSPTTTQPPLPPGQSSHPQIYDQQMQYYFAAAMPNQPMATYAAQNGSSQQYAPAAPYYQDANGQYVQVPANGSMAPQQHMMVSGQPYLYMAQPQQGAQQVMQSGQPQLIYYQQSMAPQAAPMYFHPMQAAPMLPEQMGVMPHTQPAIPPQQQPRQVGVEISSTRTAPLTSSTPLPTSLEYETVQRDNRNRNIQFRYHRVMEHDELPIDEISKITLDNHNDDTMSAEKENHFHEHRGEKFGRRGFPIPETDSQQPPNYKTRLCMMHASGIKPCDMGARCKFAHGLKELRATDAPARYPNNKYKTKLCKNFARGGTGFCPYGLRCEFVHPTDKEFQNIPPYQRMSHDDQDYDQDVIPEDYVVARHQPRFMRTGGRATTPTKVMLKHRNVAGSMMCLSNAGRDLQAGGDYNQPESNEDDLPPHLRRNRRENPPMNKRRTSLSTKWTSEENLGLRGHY
# [5] = biological target: T4, RNA-binding protein pos-1 (Caenorhabditis elegans, UniProt G5EF15); test: inhibitors of POS-1/mex-3 RNA binding, dose response, biochemical, fluorescence polarization (AID 1964);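 also: purified POS-1 fused to maltose binding protein made in E. coli; potency of compounds blocking POS-1 binding to fluorescent RNA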
# T4 sequence (G5EF15 whole entry): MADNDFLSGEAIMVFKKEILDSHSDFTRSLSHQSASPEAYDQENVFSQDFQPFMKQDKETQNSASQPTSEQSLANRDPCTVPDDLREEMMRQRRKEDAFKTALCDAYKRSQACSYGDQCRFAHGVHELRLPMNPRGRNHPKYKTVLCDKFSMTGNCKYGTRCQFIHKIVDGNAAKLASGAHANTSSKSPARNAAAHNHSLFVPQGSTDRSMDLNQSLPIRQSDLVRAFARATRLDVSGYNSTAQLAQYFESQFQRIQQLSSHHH
# cells = assay type: functional
# Protein RecA = biological target: T5, Protein RecA (Mycobacterium tuberculosis, UniProt P9WHJ3); test: Fluorescence Cell-Free Homogeneous Dose Retest to Identify Inhibitors of RecA-Intein Splicing Activity. [Related pubchem assays (depositor defined):AID2097, AID2223, AID489010, AID492950]; assay type: functional
# T5 sequence (P9WHJ3 whole entry): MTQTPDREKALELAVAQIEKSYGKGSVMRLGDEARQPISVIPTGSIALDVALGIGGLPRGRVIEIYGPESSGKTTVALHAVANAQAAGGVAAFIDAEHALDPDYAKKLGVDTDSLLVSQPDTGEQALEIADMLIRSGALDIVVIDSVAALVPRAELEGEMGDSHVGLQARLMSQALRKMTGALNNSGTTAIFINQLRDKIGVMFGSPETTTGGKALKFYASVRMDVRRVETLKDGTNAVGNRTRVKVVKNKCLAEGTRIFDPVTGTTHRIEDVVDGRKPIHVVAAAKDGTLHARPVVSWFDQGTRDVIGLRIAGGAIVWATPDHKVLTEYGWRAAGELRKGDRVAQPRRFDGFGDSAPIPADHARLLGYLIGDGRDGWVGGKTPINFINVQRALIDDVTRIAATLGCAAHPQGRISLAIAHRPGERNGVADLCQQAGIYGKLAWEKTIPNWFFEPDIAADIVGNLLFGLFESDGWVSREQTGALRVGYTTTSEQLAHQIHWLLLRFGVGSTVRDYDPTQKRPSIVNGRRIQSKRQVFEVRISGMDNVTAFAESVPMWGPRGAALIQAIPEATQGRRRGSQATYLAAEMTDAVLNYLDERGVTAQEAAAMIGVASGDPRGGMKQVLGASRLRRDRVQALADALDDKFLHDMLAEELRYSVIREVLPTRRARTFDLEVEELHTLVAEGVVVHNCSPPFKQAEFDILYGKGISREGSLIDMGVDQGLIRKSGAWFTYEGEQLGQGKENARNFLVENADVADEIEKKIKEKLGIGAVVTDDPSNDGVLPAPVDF
# [6] = biological target: T6, Replicative DNA helicase DnaB (Mycobacterium tuberculosis, UniProt P9WMR3); test: DnaB intein splicing inhibitors, dose response, biochemical, cell-free fluorescence (AID 449749); assay type: functional
# T6 sequence (P9WMR3 whole entry): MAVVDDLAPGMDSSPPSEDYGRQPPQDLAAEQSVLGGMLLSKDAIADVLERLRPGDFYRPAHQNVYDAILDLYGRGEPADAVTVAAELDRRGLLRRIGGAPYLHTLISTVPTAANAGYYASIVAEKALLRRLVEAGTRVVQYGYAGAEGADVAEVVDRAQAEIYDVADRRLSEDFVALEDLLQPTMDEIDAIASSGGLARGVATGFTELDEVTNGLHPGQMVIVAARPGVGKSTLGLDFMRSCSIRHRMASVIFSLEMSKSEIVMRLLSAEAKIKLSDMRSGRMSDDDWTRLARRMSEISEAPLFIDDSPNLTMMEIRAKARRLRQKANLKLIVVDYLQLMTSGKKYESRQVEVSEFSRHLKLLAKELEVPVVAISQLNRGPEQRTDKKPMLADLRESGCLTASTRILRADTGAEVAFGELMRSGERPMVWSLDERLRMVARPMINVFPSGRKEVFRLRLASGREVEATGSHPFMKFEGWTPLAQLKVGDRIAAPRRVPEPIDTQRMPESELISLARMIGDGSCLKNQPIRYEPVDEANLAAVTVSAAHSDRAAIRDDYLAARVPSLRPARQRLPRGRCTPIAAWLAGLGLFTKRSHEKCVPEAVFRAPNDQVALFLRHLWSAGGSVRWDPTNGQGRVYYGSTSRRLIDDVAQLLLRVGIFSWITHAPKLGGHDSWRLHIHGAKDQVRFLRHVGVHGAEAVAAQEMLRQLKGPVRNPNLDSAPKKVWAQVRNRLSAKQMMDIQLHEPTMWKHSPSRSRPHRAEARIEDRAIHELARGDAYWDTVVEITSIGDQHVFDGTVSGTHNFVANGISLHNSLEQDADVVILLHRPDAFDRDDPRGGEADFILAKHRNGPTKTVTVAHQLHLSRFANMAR
# [7] = inhibitors of HIV Env-driven cell fusion, dose response, cherry-pick (AID 652057); assay type: functional, cell-based
# [8] = off-target signal loss in HeLa-CEM21 co-culture – HeLa F-luc CTL cells, cherry-picked, counter-screen for HIV-1 Env fusion inhibitor project, dose response (AID 652040); assay type: functional, cell-based;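 also: potency for signal decrease marking cytotoxic or nonspecific inhibition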
# [9] = inhibitors of clade B AD8 Env fusion, dose response, cell-based, cherry-pick (AID 652062); assay type: functional;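 also: luciferase signal from cell-cell fusion driven by HIV-1 clade B AD8 Env; potency is for inhibitors of fusion seen as a drop in luminescence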
# [10] = C. albicans growth with fluconazole, confirmation, fluorescence, retest (AID 2467); assay type: functional, cell-based
# [11] = NIH-3T3 fibroblast cytotoxicity, dose response, cytotoxicity control, cell-based, fluorescence, Alamar Blue, secondary assay (AID 2327); assay type: functional;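 also: NIH-3T3 mouse fibroblasts cultured with fluconazole at 8 µg/mL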
# [12] = biological target: Heat shock protein HSP 90-alpha (Homo sapiens, UniProt P07900); assay type: functional, organism-based
# H4 = test: Luminescence Cell-Based Dose Response HTS to Identify Activators of 5'UTR Stem-Loop Driven Prion Protein mRNA Translation in H4 Neuroglioblastoma Cells. [Related pubchem assays: 1829 (Project Summary), 1814 (Primary HTS)]; assay type: functional; settings: Homo sapiens
# [13] = Luminescence Cell-Based Dose Response HTS to Identify Activators of Luciferase Translation or Activity in H4 […] Cells. [Related pubchem assays: 1829 (Project Summary), 1814 (Primary HTS)]; assay type: functional
# [14] = Luminescence Cell-Based Dose Confirmation HTS to Identify Activators of 5'UTR Stem-Loop Driven Alpha-Synuclein mRNA Translation in H4 Neuroglioblastoma Cells. [Related pubchem assays: 1829 (Project Summary), 1814 (Primary HTS)]; assay type: functional
structure (smiles),measurement,setting,value
NC(=O)c1nsc(C(=O)N(c2ccccc2F)C(C(=O)NCc2ccc(F)cc2)c2ccc(O)cc2)c1N (stereo unspecified),IC50,H9c2,29.8 µM (active)
same,IC50,[1],> 20 µM (inactive)
O=C(COc1ccc([N+](=O)[O-])cc1)Nc1ccc2c(c1)CCC2,IC50,Fatty acid synthase [2],14.6 µM (active)
same,IC50,Fatty acid synthase [3],6.78 µM (active)
Cc1ccc(C(=O)CSc2nc3c(=O)n(C)c(=O)n(C)c3[nH]2)cc1,EC50,[4],> 300 µM (not active)
same,EC50,[5],> 300 µM (not active)
COc1cc(OC)c(C2=NOC(C(=O)N3CCc4ccccc4C3)C2)cc1Cl (stereo unspecified),IC50,Fatty acid synthase [2],3.02 µM (active)
same,IC50,Fatty acid synthase [3],2.28 µM (active)
COC(=O)CCCCCN1C(=O)/C(=C\c2ccncc2)SC1=S,IC50,cells,7.86 µM (active)
same,EC50,Protein RecA,17.7 µM (active)
same,AC50,[6],12.2 µM (active)
CCN(CC)C(=O)C1CCCN(c2ccc([N+](=O)[O-])cc2/C=N/NC(=O)c2cccc(O)c2)C1 (stereo unspecified),IC50,Fatty acid synthase [2],1.93 µM (active)
same,IC50,Fatty acid synthase [3],1.57 µM (active)
O=C(N/N=C/c1ccc(-c2cccc([N+](=O)[O-])c2)o1)c1ccc([N+](=O)[O-])cc1,EC50,[4],> 300 µM (not active)
same,IC50,H9c2,> 79 µM (inactive)
same,EC50,[5],> 300 µM (not active)
CCCOc1ccc(C(F)(F)F)cc1NC(=O)CCc1c(C)noc1C,AC50,[7],11.6 µM (active)
same,AC50,[8],24.2 µM (active)
same,AC50,[9],51.4 µM (active)
CCOc1ccc(Nc2nc(NCC3CCCO3)c3ccccc3n2)cc1 (stereo unspecified),EC50,[10],2.32 µM (active)
same,EC50,[11],33.5 µM (inconclusive)
same,IC50,[1],> 20 µM (inactive)
Cc1ccc(N2C(=O)C3C4C=CC(CN=C(S)N5CCN(c6ccccn6)CC5)(O4)C3C2=O)cc1 (stereo unspecified),AC50,[12],7.77 µM (active)
C/C(=N\Nc1ncc(Cl)cc1Cl)c1ccc(OC(F)F)cc1,IC50,Fatty acid synthase [2],16.1 µM (active)
same,IC50,Fatty acid synthase [3],14.2 µM (active)
Cc1cccc(C(=O)Oc2ccc(/C=N/NC(=O)Cc3ccc([N+](=O)[O-])cc3)cc2)c1,IC50,[1],> 20 µM (inactive)
COc1ccc(C2=NOC(COC(=O)c3ccc4ccccc4n3)C2)cc1 (stereo unspecified),EC50,H4,4.71 µM (active)
same,EC50,[13],> 120 µM (not active)
same,IC50,cells,9.07 µM (active)
same,EC50,[14],17.2 µM (active)
CN1CCN(CCCNC(=O)c2cn(C3CCCCC3)c(=O)c3c2c2ccccc2n3C)CC1,IC50,[1],> 20 µM (inactive)
